In US5580552A, “7-glycosyloxybenzopyran derivative and antiallergic agent containing the derivative as active ingredient” (priority 1994, dated 1996):

How the values were obtained:
[1] = test system: experimental asthma model (airway resistance); assay: Effect on experimental asthma model in guinea pigs (airway resistance); assay type: in vivo, guinea pigs (male hartley); details: 50 mg/kg oral (TABLE 6)
[2] = test system: contact dermatitis induced by picryl chloride; assay: Effect on contact dermatitis induced by picryl chloride in mice; assay type: in vivo; details: 50 mg/kg oral, 1 hour before and 16 hours after challenge, 24 hours after challenge
Method in brief: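 Mice sensitized on shaved abdomen with 7 mg picryl chloride in acetone, challenged 7 days later with 1% picryl chloride in olive oil on left ear. Compounds given orally at 50 mg/kg in 0.5% CMCNa 1 h before and 16 h after challenge. Ear thickness increase at 24 h vs pre-challenge; inhibition % relative to vehicle.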

[3] = test system: homologous passive cutaneous anaphylaxis (PCA) reaction; assay: Effect on homologous passive cutaneous anaphylaxis (PCA) reaction in rats; assay type: in vivo, rats (male wistar); details: 50 mg/kg oral, 1 hour before challenge (TABLE 2)
Method in brief: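 Male Wistar rats sensitized intradermally with anti-DNP-As serum; 48 h later compound given orally at 50 mg/kg in 0.5% CMCNa. Challenge 1 h post-dose with i.v. TNP-As plus Evans Blue; extravasated dye measured at 30 min, inhibition versus vehicle group, n=5.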

SMILES | Inhibition (%) of the airway resistance [1] | Inhibition (%) against the increase of ear thickness [2] | Inhibition (%) of PCA reaction [3] | inhibition in vivo at 50 mg/kg ([1]; Cavia porcellus, po, 0.5 h) | inhibition in vivo at 50 mg/kg ([2]; Mus musculus, po, 24 h, read-out: Inhibition (%) against the increase of ear thickness) | inhibition in vivo at 50 mg/kg ([3]; Rattus norvegicus, po, 0.5 h)
CC(C)Oc1c(O)c(=O)oc2cc(O[C@@H]3O[C@H](CO)[C@@H](O)[C@H](O)[C@H]3O)ccc12 [compound 156] | 48.2% | 43.2% | 42.1% |  |  | 
O=c1oc2cc(O[C@H]3O[C@H](CO)[C@@H](O)[C@H](O)[C@@H]3O)ccc2c(O)c1OCc1ccccc1 [compound 72] |  |  |  | 52.1% | 42.3% | 45.2%
